Measurements taken from US12398141B2 (SHANGHAI SYNERGY PHARMACEUTICAL SCIENCES CO., LTD, priority 2019, dated 2025).

Assays:
[1] = Collagen-induced rheumatoid arthritis model, clinical score; type: in vivo, mice; design: key: 0-4 per limb by redness/deformity, max 16 per animal; settings: clinical score 0-16 per animal, Day 0 (before modeling)
Experimental: (§1) The effects of compounds H07, H12, H14, H25, H30, H39 and H44 on rheumatoid arthritis in […] were determined after long term administration by using Lewis male […] (Beijing Vital River Laboratory Animal Technology Co., Ltd.), aged 5-6 weeks and weighing […] as test animals. The anti-inflammatory pharmacodynamics characteristic of the compounds of the invention was discussed.
(§2) A certain amount of compounds were taken and dissolved in 4% Tween 80/0.5% hydroxy propyl methyl cellulose solution. A volume of intragastric administration of mice was 10 ml/kg.
(§3) Collagen type II was dissolved in 0.1M acetic acid and kept in a 4° C. refrigerator overnight at a collagen concentration of 4 mg/mL. Same volume of incomplete Freund adjuvant (Sigma, USA) was added in collagen before injection in test, which was emulsified high speed homogenizer (30000 rpm) to prepare a collagen emulsion. This procedure was carried out on ice.
(§4) Mice were immunologically injected with the collagen emulsion by two separate times for modeling on days 1 and 7 (the day before modeling was day 0). 0.1 ml of collagen emulsion prepared as above was injected intradermally into a root of tail at a single point, and 0.2 ml was injected intradermally into back at two points. The animals were subjected to clinical score and paw volume test from day 10 to day 14 after modeling. Animals successfully modeled (average clinical score≥3 points/animal) were assigned to each administration group, with each group included 10 animals. They were administrated intragastrically with above compounds or resolvents at a dosage of 10 mg/kg twice/day, and administrated intragastrically with methotrexate (2 mg/kg, Sigma, USA) every three days, until day 27. During the test, the […] were scored twice a week, and the paw volume and body weight were measured twice.
(§5) According to the different degrees of lesions (redness and joint deformation), the scores were ranged from 0 to 4 points, with the highest score of 4 points for each limb and 16 points for each animal. Scoring standards are as follows: 0, no redness; 1, slight redness on mid legs (tarsals) or ankles; 2, slight redness from ankles to mid legs (tarsals); 3, medium redness from ankles to tarsometatarsal joints; 4, severe redness from toes or fingers to ankles or wrist joints.

[2] = system: Lewis male mice; experiment: as above; type: in vivo; design: key: 0-4 per limb by redness/deformity, max 16 per animal; settings: clinical score 0-16 per animal, compounds 10 mg/kg twice/day, methotrexate 2 mg/kg every three days
Experimental: as §1, §2, §3, §4, §5

## CN(Cc1cnc2nc(N)nc(N)c2n1)c1ccc(C(=O)N[C@@H](CCC(=O)O)C(=O)O)cc1 [Methotrexate, reference compound]
[1]
  Score Day 0: 0.00 ± 0.00
[2]; Day 13
  Score Day 13: 3.10 ± 0.43
[2]; Day 14
  Score Day 14: 3.60 ± 0.37
[2]; Day 18
  Score Day 18: 4.10 ± 0.47
[2]; Day 21
  Score Day 21: 6.45 ± 0.23
[2]; Day 25
  Score Day 25: 8.87 ± 0.21
[2]; Day 27
  Score Day 27: 9.65 ± 0.13
